How the values were obtained:
LOX = assay: Inhibition of cancer cell growth by cell number, LOX; format: cell-based, Human; conditions: 48 hours exposure, Sulforhodamine B
Procedure: (§1) Human tumor cell lines were plated in 96-well plates (250 μl/well, 1-6×10^4 cells/ml) in RPMI 1640 medium, containing 5% FBS (Fetal Bovine Serum). […] After 48 hours exposure to test compounds, cells were fixed with trichloroacetic acid, and stained with Sulforhodamine B. After washing with trichloroacetic acid, bound dye was solubilized in 10 mM Tris base and optical density was determined using a plate reader. Under conditions of the assay the optical density is proportional to the number of cells in the well. IC50s (concentrations causing 50% inhibition of cell growth) were determined from the growth inhibition plots. The test procedure is described in details by Philip Skehan et. at J. Natl. Canc. Inst., 82, 1107-1112 (1990). […] Information about some of the cell lines used in these test procedures is available from the American […]: Cell Lines and Hybridomas, 1994 Reference Guide, 8th Edition. The Her2Neu cell line is a 3T3 line that has bbeen transfected with Her2 receptor kinase.

A2780S = assay: Inhibition of cancer cell growth by cell number, A2780S; format: cell-based, Human; conditions: 48 hours exposure, Sulforhodamine B
Procedure: as §1

A431 = assay: Inhibition of cancer cell growth by cell number, A431; format: cell-based, Human; conditions: 48 hours exposure, Sulforhodamine B
Procedure: as §1

SKBR3 = assay: Inhibition of cancer cell growth by cell number, SKBR3; format: cell-based, Human; conditions: 48 hours exposure, Sulforhodamine B
Procedure: as §1

MDA435 = assay: Inhibition of cancer cell growth by cell number, MDA435; format: cell-based, Human; conditions: 48 hours exposure, Sulforhodamine B
Procedure: as §1

SW620 = assay: Inhibition of cancer cell growth by cell number, SW620; format: cell-based, Human; conditions: 48 hours exposure, Sulforhodamine B
Procedure: as §1

A2780DDP = assay: Inhibition of cancer cell growth by cell number, A2780DDP; format: cell-based, Human; conditions: 48 hours exposure, Sulforhodamine B
Procedure: as §1

[1] = target: T1, recombinant human MEK 1 (MAPKK) / human ERK2 (MAPK) (Homo sapiens, UniProt P28482+Q02750); assay: Mitogen Activated Protein Kinase (MAPK) coupled Mek-Erk assay; format: biochemical; conditions: coupled MEK 1/ERK2 assay, 33P ATP; read-out: IC50, inhibition of Mitogen Activated Protein Kinase (Mek-Erk)
T1 construct: The recombinant enzymes used were prepared as GST fusion proteins of human ERK 2 and human MEK 1
Procedure: To evaluate inhibitors of the MAP (mitogen activated protein) kinase a two component coupled standard pharmacological test procedure, which measures phosphorylation of a serine/threonine residue in an appropriate sequence in the substrate in the presence and absence of a putative inhibitor, was used. Recombinant human MEK 1 (MAPKK) was first used to activate recombinant human ERK2 (MAPK) and the activated MAPK (ERK) was incubated with substrate (MEP peptide or MYC peptide) in the presence of ATP, Mg^+2 and radiolabeled ^33P ATP. The phosphorylated peptide was captured on a P 81 phosphocellulose filter (paper filter or embedded in microtiter plate) washed and counted by scintillation methods. […]
The reaction was run as follows in 50 mM Tris kinase buffer, pH 7.4 in a reaction volume of 50 ul. […] The filters or MTP were briefly air dried before addition of scintillant and samples were counted in the appropriate scintillation counter set up for reading ^33P isotope. […]
The raw data was captured as cpm Sample replicates were averaged and corrected for background count. Mean cpm data was tabulated by group and % inhibition by a test compound was calculated as (corrected cpm control-corrected. cpm sample/control)×100=% inhibition. […]

T1 sequence (P28482 2-360): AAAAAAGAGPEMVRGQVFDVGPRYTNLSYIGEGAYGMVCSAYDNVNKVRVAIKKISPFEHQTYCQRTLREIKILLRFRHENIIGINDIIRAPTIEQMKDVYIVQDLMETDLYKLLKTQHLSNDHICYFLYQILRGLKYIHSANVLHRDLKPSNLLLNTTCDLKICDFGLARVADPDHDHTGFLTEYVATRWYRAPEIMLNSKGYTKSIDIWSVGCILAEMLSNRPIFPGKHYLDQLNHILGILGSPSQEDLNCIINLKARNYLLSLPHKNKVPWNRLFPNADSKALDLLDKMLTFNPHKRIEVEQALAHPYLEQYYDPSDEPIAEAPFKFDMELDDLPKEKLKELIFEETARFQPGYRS
T1 sequence (Q02750 whole entry, the tested form may be a part): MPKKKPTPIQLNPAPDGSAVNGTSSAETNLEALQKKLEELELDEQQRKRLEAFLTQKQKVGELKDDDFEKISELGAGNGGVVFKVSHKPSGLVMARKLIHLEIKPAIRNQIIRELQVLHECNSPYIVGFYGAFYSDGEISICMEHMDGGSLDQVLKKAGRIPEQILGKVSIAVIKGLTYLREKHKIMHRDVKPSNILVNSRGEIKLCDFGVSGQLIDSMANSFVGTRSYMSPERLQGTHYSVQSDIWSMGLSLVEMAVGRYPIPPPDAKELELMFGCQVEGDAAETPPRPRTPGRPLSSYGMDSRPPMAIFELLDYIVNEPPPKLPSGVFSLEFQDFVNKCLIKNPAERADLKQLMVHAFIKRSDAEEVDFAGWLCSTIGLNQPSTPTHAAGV

Row | Compound | IC50, inhibition of cell growth, LOX (LOX) [µg/mL] | IC50, inhibition of cell growth, A2780S (A2780S) [µg/mL] | IC50, inhibition of cell growth, A431 (A431) [µg/mL] | IC50, inhibition of cell growth, SKBR3 (SKBR3) [µg/mL] | IC50, inhibition of cell growth, MDA435 (MDA435) [µg/mL] | IC50, inhibition of cell growth, SW620 (SW620) [µg/mL] | IC50, inhibition of cell growth, A2780DDP (A2780DDP) [µg/mL] | IC50 [1] [µM]
1 | 1-[4-(3-Bromo-phenylamino)-3-cyano-[1,7]naphthyridin-6-yl]-4-diethylamino-pyridinium Fluoride [Example 65] | 56 | 31 | 59 | 41 | 47 | 42 | 52 | 
2 | N#Cc1cnc2ncc([N+](=O)[O-])cc2c1Nc1cccc(Br)c1 [Example 21, 4-(3-Bromo-phenylamino)-6-nitro-[1,8]naphthyridine-3-carbonitrile] |  |  |  |  |  |  |  | 10

Reference: patent US6548496B2, “Substituted 3-cyano-[1.7], [1.5], and [1.8] naphthyridine inhibitors of tyrosine kinases” (American Cyanamid Company, priority 1999, dated 2003)
